Assay results reported in PubChem BioAssay AID1259407 (Chemical Carcinogenesis Research Information System (CCRIS), 2018).
Active and inactive are the calls of the source. How the calls were made is not given here.

Test system: CCRIS mutagenicity, Ames/micronucleus/aberration tests
Assay: CCRIS mutagenicity studies

COP(=S)(OC)SCN1C(=O)c2ccccc2C1=O was tested, and the mutagenic call (Test System: AMES SALMONELLA TYPHIMURIUM, Strain/Indicator: TA97, Metabolic Activation: NONE, Method: STANDARD PLATE) was “active; positive”, the mutagenic call (Test System: AMES SALMONELLA TYPHIMURIUM, Strain/Indicator: TA97, Metabolic Activation: RAT, LIVER, S-9, DELOR 103, Method: STANDARD PLATE) was “active; positive” and the mutagenic call (Test System: AMES SALMONELLA TYPHIMURIUM, Strain/Indicator: TA97, Metabolic Activation: RAT, LIVER, S-9, PHENOBARBITAL, Method: STANDARD PLATE) was “active; positive”. For the same molecule, the mutagenic call (Test System: AMES SALMONELLA TYPHIMURIUM, Strain/Indicator: TA98, Metabolic Activation: NONE, Method: STANDARD PLATE) was “inactive; negative”, the mutagenic call (Test System: AMES SALMONELLA TYPHIMURIUM, Strain/Indicator: TA98, Metabolic Activation: RAT, LIVER, S-9, DELOR 103, Method: STANDARD PLATE) was “inactive; negative” and the mutagenic call (Test System: AMES SALMONELLA TYPHIMURIUM, Strain/Indicator: TA98, Metabolic Activation: RAT, LIVER, S-9, PHENOBARBITAL, Method: STANDARD PLATE) was “inactive; negative”. The mutagenic call (Test System: AMES SALMONELLA TYPHIMURIUM, Strain/Indicator: TA100, Metabolic Activation: NONE, Method: STANDARD PLATE) was “active; positive”, the mutagenic call (Test System: AMES SALMONELLA TYPHIMURIUM, Strain/Indicator: TA100, Metabolic Activation: RAT, LIVER, S-9, DELOR 103, Method: STANDARD PLATE) was “active; positive” and the mutagenic call (Test System: AMES SALMONELLA TYPHIMURIUM, Strain/Indicator: TA100, Metabolic Activation: RAT, LIVER, S-9, PHENOBARBITAL, Method: STANDARD PLATE) was “active; positive”. The mutagenic call (Test System: AMES SALMONELLA TYPHIMURIUM, Strain/Indicator: TA100, Metabolic Activation: S-9 MIX, Method: STANDARD PLATE) was “active; positive”, the mutagenic call (Test System: AMES SALMONELLA TYPHIMURIUM, Strain/Indicator: TA1535, Metabolic Activation: NONE, Method: STANDARD PLATE) was “inactive; negative” and the mutagenic call (Test System: AMES SALMONELLA TYPHIMURIUM, Strain/Indicator: TA1535, Metabolic Activation: RAT, LIVER, S-9, DELOR 103, Method: STANDARD PLATE) was “inactive; negative”. The mutagenic call (Test System: AMES SALMONELLA TYPHIMURIUM, Strain/Indicator: TA1535, Metabolic Activation: RAT, LIVER, S-9, PHENOBARBITAL, Method: STANDARD PLATE) was “inactive; negative”, the mutagenic call (Test System: AMES SALMONELLA TYPHIMURIUM, Strain/Indicator: TA1538, Metabolic Activation: NONE, Method: STANDARD PLATE) was “inactive; negative” and the mutagenic call (Test System: AMES SALMONELLA TYPHIMURIUM, Strain/Indicator: TA1538, Metabolic Activation: RAT, LIVER, S-9, DELOR 103, Method: STANDARD PLATE) was “inactive; negative”. The mutagenic call (Test System: AMES SALMONELLA TYPHIMURIUM, Strain/Indicator: TA1538, Metabolic Activation: RAT, LIVER, S-9, PHENOBARBITAL, Method: STANDARD PLATE) was “inactive; negative”, the mutagenic call (Test System: CHINESE HAMSTER V-79, Strain/Indicator: V-79/6-THIOGUANINE, Metabolic Activation: NONE, Method: RESPREADING) was “inactive; negative” and the mutagenic call (Test System: CHINESE HAMSTER V-79, Strain/Indicator: V-79/6-THIOGUANINE, Metabolic Activation: RAT, LIVER, S-9, Method: RESPREADING) was “active; positive”.
